# Entries after “also recorded” stand apart in the source; their conditions may differ.
# Experiment: NMR detection of 13C/15N-labeled RNA in mouse serum sampled three hours after inoculation into the tail
# Assay type: in vivo, mice (BALB/cAnNCr)
# Details: for signals derived from base pairs, 500 MHz 1H-NMR spectra of exchangeable protons (imino protons) / signals derived from nucleic acid bases, 500 MHz 1H-NMR spectra of non-exchangeable protons (9 to 6.5 ppm): 25° C.
# Protocol: Four female SPF/VAF mice (BALB/cAnNCr, 8 weeks old, No. 1 to No. 4) supplied by Charles River Japan, Inc. were used for the experiment.
# The abovementioned oligonucleotide (5 mg) was dissolved in 120 μl of a physiological saline solution to prepare four […] samples. Two samples were administered without a drug delivery system. The abovementioned histone subunit mixture was added to the remaining two samples to form a complex. • Sample 1: ^13C—^15N-labeled RNA (inoculated into and sampled from No. 1 mouse) • Sample 2: ^13C—^15N-labeled RNA (inoculated into and sampled from No. 2 mouse) • Sample 3: the complex of ^13C—^15N-labeled RNA and the drug delivery system (inoculated into and sampled from No. 3 mouse) • Sample 4: the complex of ^13C—^15N-labeled RNA and the drug delivery system (inoculated into and sampled from No. 4 mouse)
# Each sample solution (100 μl), which was adjusted to 62.5 mg/kg, was inoculated into the tail of the abovementioned mice. Three hours after the inoculation, the mice were anesthetized with ether and about 1 ml of whole blood was sampled from the heart. This whole blood was allowed to stand at room temperature for 30 minutes, and then centrifuged at 1,500 rpm at room temperature for 15 minutes. Supernatant serum obtained by the centrifugation was subjected to NMR measurement as follows. Heavy water (20 μl) was added to the samples (400 μl each) obtained by the abovementioned centrifugation, and the measurement of NMR spectra was carried out at 25° C. A DRX-500 NMR spectrometer (BRUKER) was used for the measurement. Pre-saturation was carried out for the measurement of non-exchangeable protons and jump-and-return pulses were used for the measurement of exchangeable imino proton spectra.
# [1] = mouse serum, three hours after inoculation, 62.5 mg/kg, 62.5 mg/kg
# [2] = mouse serum, three hours after inoculation, 62.5 mg/kg, listed as Sample 2, 62.5 mg/kg
substance,measurement,setting,value
"Sample 1: oligonucleotide comprising 43 bases shown in SEQ ID No. 1, RNA labeled with 13C and 15N, administered without a drug delivery system (antisense GGGAGAGGGCAACCUGACCUGUUAUCAUCGCAAGAAGCUUCCG; RNA, phosphodiester; uniformly 13C/15N isotope-labeled ribonucleotides)",detection of the oligonucleotide by NMR,"complex with the drug delivery system (histone subunit mixture) formed, mouse serum, three hours after inoculation",entire length of the oligonucleotide was detected
same,13C-1H HMQC spectra of non-exchangeable protons,"mouse serum, three hours after inoculation, 62.5 mg/kg","Only noise, and no spectrum derived from RNA"
same,"signals derived from base pairs, 500 MHz 1H-NMR spectra of exchangeable protons (imino protons)",[1],Absolutely no signal; also recorded: barely detected
same,"signals derived from nucleic acid bases, 500 MHz 1H-NMR spectra of non-exchangeable protons (9 to 6.5 ppm)",[1],only extremely weak signals; also recorded: barely detected
same,"signals derived from base pairs, 500 MHz 1H-NMR spectra of exchangeable protons (imino protons)",[2],Absolutely no signal; also recorded: barely detected
same,"signals derived from nucleic acid bases, 500 MHz 1H-NMR spectra of non-exchangeable protons (9 to 6.5 ppm)",[2],only extremely weak signals; also recorded: barely detected
same,detection of the oligonucleotide by NMR,"no complex with the drug delivery system formed, mouse serum, three hours after inoculation",barely detected
same,time the antisense chain existed in the blood,"when the drug delivery system was used, mice",up to 3 hours
same,decomposition of the RNA present in the blood,"when the drug delivery system was used, mice, three hours after inoculation",did not undergo partial decomposition

# Reference: patent US7038036B2, “Oligonucleotides labeled with stable isotopes and a method for detecting the same” (Taiyo Nippon Sanso Corporation, priority 1999, dated 2006)
